Measured values published in patent publication US20160177395A1, “BIOMARKERS FOR THE PREDICTION OF RENAL INJURY” (priority 2007, published 2016).
Values joined by “and” are separate entries in the source; they are usually repeats but may differ in a detail not shown here. Identical values can stand only once.

Tested on: kidney tissues of treated or untreated rats
Test: Real-time qRT-PCR of marker transcripts in kidney tissue panel, discovery stage (Table 22); on normalized Real Time PCR MUSCYCG1R DB81 seg19-20: test concentration or dose not given here; on normalized Real Time PCR RATRAB13X DB81 seg15-17: test concentration or dose not given here; on normalized Real Time PCR RATRAB13X DB81 seg22: test concentration or dose not given here; on normalized Real Time PCR W33294 DB81 seg23: test concentration or dose not given here; on normalized Real Time PCR W33294 DB81 seg44: test concentration or dose not given here
Type: in vivo, rat
Set-up: AI502869_DB71_seg0 normalized Real Time PCR expression: unit not given beside the values
Conditions: for normalized Real Time PCR MMU09507_DB81_seg15 / normalized Real Time PCR MUSCYCG1R_DB81_seg19-20 / normalized Real Time PCR RATRAB13X_DB81_seg15-17 / normalized Real Time PCR RATRAB13X_DB81_seg22 / normalized Real Time PCR W33294_DB81_seg23 / normalized Real Time PCR W33294_DB81_seg44: kidney; for AA686189_DB71_seg6 normalized Real Time PCR expression / AA799594_DB71_seg0 normalized Real Time PCR expression / AA964541_DB71_seg0 normalized Real Time PCR expression / AI045075_DB71_seg6 normalized Real Time PCR expression / AI454051_DB71_seg0 normalized Real Time PCR expression / AI502869_DB71_seg0 normalized Real Time PCR expression / AW919147_DB71_seg0 normalized Real Time PCR expression / BI293562_DB71_seg2 normalized Real Time PCR expression / H31045_DB71_seg5 normalized Real Time PCR expression / H31799_DB71_seg23 normalized Real Time PCR expression / H31883_DB71_seg13 normalized Real Time PCR expression / H33998_DB71_seg19 normalized Real Time PCR / MUSCYCG1R_DB81_seg15-17 normalized Real Time PCR / RATLRFI_DB71_seg9 normalized Real Time PCR / RATRAB13X_DB71_seg11-13 normalized Real Time PCR / RNU24174_DB71_seg8 normalized Real Time PCR / W41270_DB81_seg11 normalized Real Time PCR / W64472_DB81_seg2 normalized Real Time PCR / W83813_DB81_seg27 normalized Real Time PCR: rat kidney
Outline: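 Rat kidney RNA, DNase-treated until PCR-negative, reverse transcribed with SuperscriptII; SYBR Green real-time PCR, 40 cycles, undetected samples set to Ct 41. Relative quantity from efficiency^-Ct (standard-curve efficiency), normalized to the geometric mean of four median-scaled housekeeping genes, then multiplied by a constant factor.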

[1] = female rats, day5, listed as Gent
[2] = day1, individual animals (F and M)
[3] = day5, individual animals (F and M)
[4] = day28, individual animals (F and M)

Question: What does the source list for Gentamycin?
Answer: normalized Real Time PCR MMU09507_DB81_seg15 (female rats, day1): 0.41 and 0.43 and 0.23; normalized Real Time PCR MUSCYCG1R_DB81_seg19-20 (female rats, day1): 0.67 and 0.55 and 0.44; normalized Real Time PCR RATRAB13X_DB81_seg15-17 (female rats, day1): 0.9 and 0.63 and 0.55; normalized Real Time PCR RATRAB13X_DB81_seg22 (female rats, day1): 0.98 and 0.71 and 0.51; normalized Real Time PCR W33294_DB81_seg23 (female rats, day1): 1 and 0.51 and 0.94; normalized Real Time PCR W33294_DB81_seg44 (female rats, day1): 1.02 and 0.8 and 0.77; normalized Real Time PCR MUSCYCG1R_DB81_seg19-20 (female rats, day5): 1.41; normalized Real Time PCR MMU09507_DB81_seg15 [1]: 0.78 and 0.62 and 1.13; normalized Real Time PCR MUSCYCG1R_DB81_seg19-20 [1]: 1.23 and 1.42; normalized Real Time PCR RATRAB13X_DB81_seg15-17 [1]: 1.68 and 1.5 and 1.59; normalized Real Time PCR RATRAB13X_DB81_seg22 [1]: 2.16 and 2.11 and 1.91; normalized Real Time PCR W33294_DB81_seg23 [1]: 1.64 and 1.96 and 1.51; normalized Real Time PCR W33294_DB81_seg44 [1]: 1.64 and 1.72 and 2.13; normalized Real Time PCR MMU09507_DB81_seg15 (female rats, day28): 1.38 and 0.96 and 0.7; normalized Real Time PCR MUSCYCG1R_DB81_seg19-20 (female rats, day28): 0.56 and 0.74 and 0.42; normalized Real Time PCR RATRAB13X_DB81_seg15-17 (female rats, day28): 0.84 and 0.9 and 0.88; normalized Real Time PCR RATRAB13X_DB81_seg22 (female rats, day28): 0.68 and 0.56 and 0.57; normalized Real Time PCR W33294_DB81_seg44 (female rats, day28): 0.66 and 0.71; normalized Real Time PCR MMU09507_DB81_seg15 (male rats, day1): 0.56 and 0.32 and 0.37; normalized Real Time PCR RATRAB13X_DB81_seg22 (male rats, day1): 0.8 and 0.99 and 0.6; normalized Real Time PCR W33294_DB81_seg23 (male rats, day1): 0.57 and 0.74 and 0.61; normalized Real Time PCR W33294_DB81_seg44 (male rats, day1): 0.77 and 0.5 and 0.64; normalized Real Time PCR MMU09507_DB81_seg15 (male rats, day5): 0.71 and 0.41 and 0.68; normalized Real Time PCR MUSCYCG1R_DB81_seg19-20 (male rats, day5): 1.43 and 1; normalized Real Time PCR RATRAB13X_DB81_seg15-17 (male rats, day5): 1.25 and 0.76 and 1.35; normalized Real Time PCR RATRAB13X_DB81_seg22 (male rats, day5): 1.25 and 0.77 and 1.16; normalized Real Time PCR W33294_DB81_seg23 (male rats, day5): 1.25 and 0.82 and 0.95; normalized Real Time PCR W33294_DB81_seg44 (male rats, day5): 1.12 and 0.93 and 0.94; normalized Real Time PCR MMU09507_DB81_seg15 (male rats, day28): 0.82 and 0.59 and 0.84; normalized Real Time PCR MUSCYCG1R_DB81_seg19-20 (male rats, day28): 0.79 and 0.4 and 0.55; normalized Real Time PCR RATRAB13X_DB81_seg15-17 (male rats, day28): 0.77 and 0.76 and 1.22; normalized Real Time PCR RATRAB13X_DB81_seg22 (male rats, day28): 0.91 and 0.88 and 0.58; normalized Real Time PCR W33294_DB81_seg23 (male rats, day28): 0.57 and 0.8 and 0.67; AA686189_DB71_seg6 normalized Real Time PCR expression (day1, individual animals): 1.19 and 0.65 and 1.07 and 0.94 and 1.04 and 0.6; AA799594_DB71_seg0 normalized Real Time PCR expression (day1, individual animals): 1.25 and 0.72 and 0.93 and 0.57 and 0.95 and 0.92; AA964541_DB71_seg0 normalized Real Time PCR expression (day1, individual animals): 1.35 and 0.74 and 1.29 and 0.9 and 1.19 and 0.44; AI045075_DB71_seg6 normalized Real Time PCR expression (day1, individual animals): 1.5 and 0.93 and 0 and 1.07 and 1.03 and 0.78; AI454051_DB71_seg0 normalized Real Time PCR expression (day1, individual animals): 0.9 and 0.75 and 0.57 and 0.4 and 0.54 and 0.79; AI502869_DB71_seg0 normalized Real Time PCR expression (day1, individual animals): 0.83 and 0.61 and 0.53 and 1.53 and 0.99 and 0.76; AW919147_DB71_seg0 normalized Real Time PCR expression (day1, individual animals): 1.72 and 0.72 (2×) and 0.76 and 1.1 and 0.99; BI293562_DB71_seg2 normalized Real Time PCR expression (day1, individual animals): 0.59 and 0.94 and 0.93 and 0.55 and 0.41; H31045_DB71_seg5 normalized Real Time PCR expression (day1, individual animals): 0.27 and 0.22 and 0.73 and 0.16 and 0.19 and 0.15; H31799_DB71_seg23 normalized Real Time PCR expression (day1, individual animals): 1.19 and 0.88 and 0.93 and 1 and 1.2; H31883_DB71_seg13 normalized Real Time PCR expression (day1, individual animals): 0.99 and 0.92 and 0.82 (2×) and 0.61 and 0.73; H33998_DB71_seg19 normalized Real Time PCR [2]: 1.31 and 0.83 and 0.56 and 1.51 and 1.35 and 0.99; MUSCYCG1R_DB81_seg15-17 normalized Real Time PCR [2]: 0.63 and 0.53 and 0.66 and 0.5 and 0.49 and 0.41; RATLRFI_DB71_seg9 normalized Real Time PCR [2]: 0.98 and 1.54 and 1.09 and 2.74 and 1.72 and 0.27; RATRAB13X_DB71_seg11-13 normalized Real Time PCR [2]: 1.16 and 0.7 and 0.77 and 2.79 and 1.14 and 1.03; RNU24174_DB71_seg8 normalized Real Time PCR [2]: 0.47 (2×) and 0.5 and 0.74 and 0.37 and 0.26; W41270_DB81_seg11 normalized Real Time PCR [2]: 1.24 and 0.67 and 1.19 and 0.46 and 0.68 and 0.57; W64472_DB81_seg2 normalized Real Time PCR [2]: 0.63 and 0.45 and 0.61 and 0.4 and 0.54 (2×); W83813_DB81_seg27 normalized Real Time PCR [2]: 0.84 and 0.79 and 0.78 and 0.53 and 0.58 and 0.71; AA686189_DB71_seg6 normalized Real Time PCR expression (day5, individual animals): 0.64 and 0.72 and 1.21 and 0.81 and 0.83 and 0.75; AA799594_DB71_seg0 normalized Real Time PCR expression (day5, individual animals): 0.99 and 0.89 (2×) and 1.52 and 0.56 and 1.04; AA964541_DB71_seg0 normalized Real Time PCR expression (day5, individual animals): 0.86 and 0.58 and 0.91 and 0.76 and 0.87; AI045075_DB71_seg6 normalized Real Time PCR expression (day5, individual animals): 0.76 and 1.04 (2×) and 0.62 and 1.1 and 0; AI454051_DB71_seg0 normalized Real Time PCR expression (day5, individual animals): 0.63 (2×) and 1.04 and 1.19 and 0.8 and 0.82; AI502869_DB71_seg0 normalized Real Time PCR expression (day5, individual animals): 0.73 and 0.62 and 0.96 and 0.51 and 0.43 and 0.53; AW919147_DB71_seg0 normalized Real Time PCR expression (day5, individual animals): 0.86 and 0.88 and 0.95 and 0.71 and 0.79 and 0.78; BI293562_DB71_seg2 normalized Real Time PCR expression (day5, individual animals): 0.95 and 0.76 and 2.8 and 2.32 and 1.61 and 0.93; H31045_DB71_seg5 normalized Real Time PCR expression (day5, individual animals): 0.52 and 1.01 and 0.4 and 1.57 and 1.47 and 0.33; H31799_DB71_seg23 normalized Real Time PCR expression (day5, individual animals): 0.92 and 0.91 and 1.36 and 1.08 and 0.76 and 0.88; H31883_DB71_seg13 normalized Real Time PCR expression (day5, individual animals): 0.73 and 0.55 and 0.91 and 1.01 and 0.7 and 0.65; H33998_DB71_seg19 normalized Real Time PCR [3]: 1.9 and 1.5 and 2.19 and 1.91 and 0.83 and 1.16; MUSCYCG1R_DB81_seg15-17 normalized Real Time PCR [3]: 1.51 (2×) and 1.61 and 0.95 and 0.79 and 1.02; RATLRFI_DB71_seg9 normalized Real Time PCR [3]: 0.48 and 0.43 and 4.15 and 1.35 and 1.13 and 0.59; RATRAB13X_DB71_seg11-13 normalized Real Time PCR [3]: 0.9 (2×) and 0.82 and 1.12 and 0.61 and 0.8; RNU24174_DB71_seg8 normalized Real Time PCR [3]: 0.31 and 0.22 and 0.81 and 0.65 and 0.36 and 0.4; W41270_DB81_seg11 normalized Real Time PCR [3]: 2.04 and 1.34 and 2.42 and 2.03 and 1.08 and 1.2; W64472_DB81_seg2 normalized Real Time PCR [3]: 1.5 and 1.2 and 0.94 and 1.95 and 1.62 and 1.61; W83813_DB81_seg27 normalized Real Time PCR [3]: 2.07 and 1.82 and 1.7 and 1.35 and 0.88 and 1.4; AA686189_DB71_seg6 normalized Real Time PCR expression (day28, individual animals): 2.7 and 2.09 and 2.48 and 1.98 and 1.23 and 2.51; AA799594_DB71_seg0 normalized Real Time PCR expression (day28, individual animals): 0.84 and 0.8 and 0.89 and 0.54 and 0.5 and 0.67; AA964541_DB71_seg0 normalized Real Time PCR expression (day28, individual animals): 3.19 and 1.77 and 2.16 and 3.33 and 1.45 and 3.18; AI045075_DB71_seg6 normalized Real Time PCR expression (day28, individual animals): 2.09 and 3.14 and 1.74 and 1.25 and 1.99 and 1.29; AI454051_DB71_seg0 normalized Real Time PCR expression (day28, individual animals): 0.67 and 1 and 0.95 and 1.14 and 0.64 and 0.71; AI502869_DB71_seg0 normalized Real Time PCR expression (day28, individual animals): 0.66 and 0.74 and 0.73 and 1.36 and 0.92 and 0.77; AW919147_DB71_seg0 normalized Real Time PCR expression (day28, individual animals): 0.73 and 1.12 and 0.89 and 0.75 and 0.57 and 0.93; BI293562_DB71_seg2 normalized Real Time PCR expression (day28, individual animals): 2.01 and 1.19 and 0.81 and 0.63 and 0.72 and 1.16; H31045_DB71_seg5 normalized Real Time PCR expression (day28, individual animals): 0.79 and 0.84 and 0.67 and 1.11 and 4.65 and 0.45; H31799_DB71_seg23 normalized Real Time PCR expression (day28, individual animals): 0.88 and 1.05 and 1.17 (2×) and 0.37; H31883_DB71_seg13 normalized Real Time PCR expression (day28, individual animals): 0.88 and 0.98 and 0.96 and 1.05 and 0.64 and 0.8; H33998_DB71_seg19 normalized Real Time PCR [4]: 0.4 (2×) and 0.7 and 0.56 and 0.49 and 0.42; MUSCYCG1R_DB81_seg15-17 normalized Real Time PCR [4]: 0.69 and 0.62 and 0.57 and 0.65 and 0.56 and 0.54; RATLRFI_DB71_seg9 normalized Real Time PCR [4]: 5.63 and 4.17 and 2.43 and 2.56 and 1.59 and 2.51; RATRAB13X_DB71_seg11-13 normalized Real Time PCR [4]: 0.83 and 1.12 and 0.88 and 1.17 and 0.76 and 1.22; RNU24174_DB71_seg8 normalized Real Time PCR [4]: 1.53 and 1.2 and 0.59 and 1.91 and 0.69 and 0.65; W41270_DB81_seg11 normalized Real Time PCR [4]: 0.94 and 0.81 (2×) and 1.42 and 0.75 and 0.84; W64472_DB81_seg2 normalized Real Time PCR [4]: 0.92 and 0.66 and 0.54 and 1.49 and 0.84 and 0.81; W83813_DB81_seg27 normalized Real Time PCR [4]: 0.45 and 0.34 and 0.62 and 0.78 and 0.54 and 0.38
